Results on 5 molecules are retold here after ChEMBL document CHEMBL3044939, “Insect antifeedant and growth regulating activities of quassinoids from Samadera indica” (2001).

Common to all, as to format: functional
Assay [1] deals with Spodoptera litura. The assay is described as follows: Growth regulating activity of Spodoptera litura assessed as sixth-instar time at 0.5 ug/cm'2 of castor leaf area after 24 hr.
Assay [2] relates to Spodoptera litura. The assay is described as follows: Growth regulating activity of Spodoptera litura assessed as third-instar time at 0.5 ug/cm'2 of castor leaf area after 24 hr.
Assay [3] has as its system Spodoptera litura. As to the kind of experiment: Growth regulating activity of Spodoptera litura assessed as pupal time at 0.5 ug/cm'2 of castor leaf area after 24 hr.
The test system of assay [4] is Spodoptera litura. The assay is described as follows: Insecticidal activity against Spodoptera litura assessed as pupal mortality at 0.5 ug/cm'2 of castor leaf area after 24 hr.
Assay [5] relates to Spodoptera litura. As to the kind of experiment: Growth regulating activity of Spodoptera litura assessed as total larval time at 0.5 ug/cm'2 of castor leaf area after 24 hr.
Assay [6] has as its system Spodoptera litura. The assay is described as follows: Antifeedant activity against Spodoptera litura at 5 ug/cm'2 of castor leaf area relative to control.
Assay [7] relates to Spodoptera litura. As to the kind of experiment: Antifeedant activity against Spodoptera litura at 0.5 ug/cm'2 of castor leaf area relative to control.
Assay [8] concerns Spodoptera litura. As to the kind of experiment: Growth regulating activity of Spodoptera litura assessed as fifth-instar time at 0.5 ug/cm'2 of castor leaf area after 24 hr.
For assay [9], the system named is Spodoptera litura. The assay is described as follows: Growth regulating activity of Spodoptera litura assessed as fourth-instar time at 0.5 ug/cm'2 of castor leaf area after 24 hr.
The test system of assay [10] is Spodoptera litura. As to the kind of experiment: Antifeedant activity against Spodoptera litura at 1 ug/cm'2 of castor leaf area relative to control.

In the case of `C/C=C(\C)C(=O)O[C@H]1C[C@@H](OC(C)=O)[C@@]2(C(=O)OC)CO[C@H]3[C@@H](O)[C@@](C)([C@]45O[C@@]4(C)[C@@H]4C[C@H]5O[C@@H]5OC=C[C@@]54O)[C@H]4[C@]1(CO[C@]4(O)C(=O)OC)[C@@H]32` [AZADIRACHTIN A], the Time turned out to be 5.4 days with Spodoptera litura [1]; 3.2 days in the assay on Spodoptera litura [2]; 9.3 days in the assay on Spodoptera litura [3]; 16.1 days in the assay on Spodoptera litura [5]; 3.3 days with Spodoptera litura [8]; 4.1 days in the assay on Spodoptera litura [9]. For the same molecule, the Activity turned out to be 62.5% in the assay on Spodoptera litura [4], 95.4% in the assay on Spodoptera litura [6], 91.6% in the assay on Spodoptera litura [7] and 94.8% with Spodoptera litura [10].
For `CC1=CC(=O)[C@@H](O)[C@@]2(C)[C@H]1[C@@H](O)[C@H]1OC(=O)C[C@]3(O)[C@]14CO[C@@]3(C)[C@@H](O)[C@H](O)[C@H]24` [INDAQUASSIN C], the Time was 4.9 days in the assay on Spodoptera litura [1]; 2.3 days in the assay on Spodoptera litura [2]; 8.5 days with Spodoptera litura [3]; 14.2 days with Spodoptera litura [5]; 3.4 days in the assay on Spodoptera litura [8]; 3.8 days in the assay with Spodoptera litura [9]. Moreover, the Activity in the assay with Spodoptera litura [4] was found to be 10.5%; in the assay with Spodoptera litura [6], 62.5%; with Spodoptera litura [7] it was 47.6%; with Spodoptera litura [10], 48.9%.
Take `CC1=CC(=O)[C@@]2(C)C1=CC(=O)[C@@]13CO[C@]4(C)[C@@H](OC(=O)[C@@H]41)[C@H](O)[C@H]23` [SAMADERINS A]: the Time came out at 4.8 days with Spodoptera litura [1]; 2.9 days in the assay with Spodoptera litura [2]; 8.8 days with Spodoptera litura [3]; 15.1 days with Spodoptera litura [5]; 3.6 days in the assay with Spodoptera litura [8]; 3.6 days in the assay on Spodoptera litura [9]. Further, the Activity turned out to be 7.4% in the assay on Spodoptera litura [4], 21.1% in the assay on Spodoptera litura [6], 18.9% with Spodoptera litura [7] and 16.2% in the assay on Spodoptera litura [10].
On to `CC1=CC(=O)[C@@H](O)[C@@]2(C)[C@H]1CC(=O)[C@@]13CO[C@]4(C)[C@@H](OC(=O)[C@@H]41)[C@H](O)[C@@H]32` [SAMADERINS B], for which the Time in the assay with Spodoptera litura [1] worked out at 5.1 days; in the assay with Spodoptera litura [2] it was 3.1 days; in the assay with Spodoptera litura [3], 9.3 days; in the assay on Spodoptera litura [5], 15.6 days; with Spodoptera litura [8], 3.4 days; in the assay on Spodoptera litura [9] it was 3.8 days. In addition, the Activity is listed as 37.5% in the assay with Spodoptera litura [4], 63.1% in the assay on Spodoptera litura [6], 16.3% with Spodoptera litura [7] and 25.9% in the assay with Spodoptera litura [10].
As for `CC1=C[C@H](O)[C@@H](O)[C@@]2(C)[C@H]1CC(=O)[C@@]13CO[C@]4(C)[C@@H](OC(=O)[C@@H]41)[C@H](O)[C@@H]32` [SAMADERINS C], the Time in the assay with Spodoptera litura [1] worked out at 4.4 days; with Spodoptera litura [2] it was 2.7 days; in the assay with Spodoptera litura [3] it was 9.7 days; in the assay with Spodoptera litura [5] it was 15.3 days; in the assay on Spodoptera litura [8] it was 3.8 days; in the assay with Spodoptera litura [9] it was 4.4 days. For the same molecule, the Activity with Spodoptera litura [4] was found to be 54.1%; with Spodoptera litura [6], 55.3%; in the assay with Spodoptera litura [7], 15%; with Spodoptera litura [10] it was 16.1%.
